Assays:
P protein = conditions: cited from earlier work
[1] = tested on: glycine cleavage activity in the liver; conditions: administration to rats; cited from earlier work
[2] = patients with NKH; cited from earlier work
[3] = biological target: T1, glycine cleavage system (GCS) (Homo sapiens, UniProt P23378); conditions: cited from earlier work
T1 sequence (P23378 36-1020): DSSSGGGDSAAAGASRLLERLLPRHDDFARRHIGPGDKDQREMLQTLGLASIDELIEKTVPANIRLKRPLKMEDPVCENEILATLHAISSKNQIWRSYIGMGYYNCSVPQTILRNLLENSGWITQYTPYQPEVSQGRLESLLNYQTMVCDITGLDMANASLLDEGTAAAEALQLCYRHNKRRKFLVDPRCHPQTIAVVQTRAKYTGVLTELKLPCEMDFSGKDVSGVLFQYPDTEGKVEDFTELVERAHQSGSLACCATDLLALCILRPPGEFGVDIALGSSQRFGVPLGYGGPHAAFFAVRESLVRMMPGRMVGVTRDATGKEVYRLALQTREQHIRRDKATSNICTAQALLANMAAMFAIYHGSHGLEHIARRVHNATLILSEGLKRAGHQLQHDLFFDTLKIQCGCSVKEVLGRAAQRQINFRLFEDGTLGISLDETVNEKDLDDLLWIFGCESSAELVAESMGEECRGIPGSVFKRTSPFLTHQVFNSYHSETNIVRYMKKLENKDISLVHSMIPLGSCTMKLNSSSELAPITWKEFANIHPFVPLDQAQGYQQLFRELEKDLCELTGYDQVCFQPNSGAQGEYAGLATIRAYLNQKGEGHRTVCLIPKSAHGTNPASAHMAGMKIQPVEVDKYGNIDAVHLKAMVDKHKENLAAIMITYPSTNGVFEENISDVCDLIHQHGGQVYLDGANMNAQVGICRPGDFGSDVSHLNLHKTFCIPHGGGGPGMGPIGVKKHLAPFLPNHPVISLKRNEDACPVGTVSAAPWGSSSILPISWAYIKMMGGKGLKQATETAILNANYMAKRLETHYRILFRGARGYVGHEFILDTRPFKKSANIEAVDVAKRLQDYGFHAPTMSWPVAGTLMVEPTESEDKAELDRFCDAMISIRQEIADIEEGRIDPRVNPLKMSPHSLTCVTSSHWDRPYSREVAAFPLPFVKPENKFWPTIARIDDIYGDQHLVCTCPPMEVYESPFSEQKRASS

T protein = T protein (Homo sapiens, UniProt P48728); conditions: cited from earlier work
[4] = tested on: GLDC-knockdown-sensitive cells; assay: Cysteamine treatment, cell viability by ATP assay; assay type: cell-based; conditions: 1 mM, 4 days
Description: FIGS. 3A-3C. GLDC shRNA sensitive lines, but not insensitive lines, are also sensitive to pharmacological inhibition of the GCS, and to shRNA knockdown of another GCS component (GCSH). (A) Various cell lines were treated with 1 mM cysteamine for 4 days. […] (C) Various cells lines were infected with GS1, GS2, GS3, or GS4 shRNAs for 6 days. Cell viability was measured and data from multiple experiments is shown ±S.D. The blue line indicates cell viability for each cell line when infected with control (GFP) shRNA, which was set as 100%. Thus, data for each cell line is shown as a % relative to viability when infected with shGFP. For (A) and (C), asterisk indicates a statistically significant decrease in cell viability following cysteamine treatment relative to untreated (p<0.05). Red font indicates GLDC shRNA-sensitive lines, and blue font indicates insensitive lines.
We assessed the effect of treatment with cysteamine, an inhibitor of the GCS (9) on a number of the tumor cell lines that had been examined in the experiments described in Example 3. Cells were treated with cysteamine (1 mM) for 4 days, and cell viability was then assessed using an ATP assay.

Sequence of T protein (P48728 29-403): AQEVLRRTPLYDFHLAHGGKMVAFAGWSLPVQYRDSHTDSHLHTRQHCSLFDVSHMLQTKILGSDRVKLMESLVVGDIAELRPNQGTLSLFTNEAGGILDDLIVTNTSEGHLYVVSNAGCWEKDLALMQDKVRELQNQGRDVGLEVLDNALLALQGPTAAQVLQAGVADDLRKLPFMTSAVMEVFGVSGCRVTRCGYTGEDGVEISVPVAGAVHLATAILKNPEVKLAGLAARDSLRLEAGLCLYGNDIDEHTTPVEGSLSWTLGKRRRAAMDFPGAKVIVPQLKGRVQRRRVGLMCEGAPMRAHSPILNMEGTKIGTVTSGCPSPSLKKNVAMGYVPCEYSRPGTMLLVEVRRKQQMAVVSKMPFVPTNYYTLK

Structure (SMILES): CCCC(CCC)C(=O)O [valproic acid, 2-propylpentanoic acid]
- P protein activity in vitro (P protein; in vitro): reduced
- glycine cleavage activity in the liver [1]: inhibit glycine cleavage activity in the liver
- seizure frequency [2]: increase in seizure frequency

Structure (SMILES): NOCC(=O)O [carboxymethoxylamine]
- inhibition of P protein (P protein): reported to inhibit P protein

Structure (SMILES): N#CCN [aminoacetonitrile]
- inhibition of the GCS [3]: reported to inhibit the GCS

Structure (SMILES): CN1c2c(nc(N)[nH]c2=O)NCC1CNc1ccc(C(=O)N[C@@H](CCC(=O)O)C(=O)O)cc1 (stereo partly drawn) [5-methyltetrahydrofolate]
- inhibition of T protein (T protein): inhibits T protein

Structure (SMILES): C#CCN [propargylamine, 3-Amino-1-propyne]
- inhibition of the GCS [3]: reported to inhibit the GCS

Structure (SMILES): NCCS [cysteamine, 2-aminoethanethiol]
- cell viability (ATP assay) [4]: impaired viability
- inhibition of the GCS [3]: known inhibitor of the GCS

Reference: patent US9493775B2, “Inhibition of the glycine cleavage system for treatment of cancer” (Whitehead Institute for Biomedical Research, priority 2012, dated 2016)
